Laboratory results: article PMC3276683 (Bioorganic & medicinal chemistry, 2012)
Where two headings read alike, the source gives them in different places.

Assays:
[1] = test system: American Trypanosoma cruzi blood trypomastigotes; conditions: in words; cited from earlier work
[2] = test system: Plasmodium falciparum (strain K1, IEF stage); assay type: cell-based; conditions: L6 IC50 versus P. falciparum IC50
[3] = test system: Trypanosoma brucei rhodesiense (strain STIB 900, trypomastigote stage); assay: Growth inhibition of T. b. rhodesiense STIB900 trypomastigote forms; assay type: cell-based
Leishmania donovani = conditions: cited from earlier work

COc1cc(/C=C/c2ccc(OC)c(OC)c2)oc(=O)c1 [compound 3, 6-[2-(3,4-Dimethoxyphenyl)ethenyl]-4-methoxy-2H-pyran-2-one]
activity against T. cruzi blood trypomastigotes [1]: weak activity

COC1=CC(=O)O[C@]2(/C=C/c3ccc(C(C)(C)C)cc3)[C@H]1[C@H](c1ccc(C(C)(C)C)cc1)[C@H]2c1cc(OC)cc(=O)o1 (racemic) [compound 33, 12,12′-Di-tert-butyl-aniba-dimer-A]
SI Pf. (selectivity index for Plasmodium falciparum against L6) [2]: ~80

Nc1nc(N)nc(Nc2ccc([As]3SCC(CO)S3)cc2)n1 (centres unmarked) [melarsoprol]
IC50 ([3]; RHODESIENSE|STIB900): 4 ng/mL
IC50 ([3]; RHODESIENSE|STIB900, read-out: T.b.rhod. IC50): 10 nM

CCCCCCc1c(OC)cc(CCCCC)oc1=O [compound 10]
IC50 (Leishmania donovani): similarly active
